From ChEMBL document CHEMBL1201862, “PubChem BioAssay data set” (2004)
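Tested at 5 concentrations; 48 h exposure; 96-well plates; endpoints linearly interpolated, else capped at highest concentration. Abbreviation: GI50, concentration required for 50% inhibition of growth.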 The source made the active and inactive calls. Cut-off read from the data, not from the text of the source: active = GI50 up to about 1.1 µM and inactive = higher.

Legend:
Assay in all cases: NCI anticancer screen, dose series, 48 h
[1] = test system: NCI-H522
[2] = test system: HCT-116
[3] = test system: NCI-H23
[4] = test system: KM12
[5] = test system: SW-620
[6] = test system: K562
[7] = test system: OVCAR-3
[8] = test system: RPMI-8226
[9] = test system: UACC-62
[10] = test system: SNB-78
[11] = test system: LOX IMVI
[12] = test system: OVCAR-8
[13] = test system: UO-31
[14] = test system: MOLT-4
[15] = test system: HL-60
[16] = test system: COLO 205
[17] = test system: HOP-62
[18] = test system: 786-0
[19] = test system: Malme-3M
[20] = test system: M14
[21] = test system: M19-MEL
[22] = test system: NCI-H460
[23] = test system: LXFL 529
[24] = test system: RXF 393
[25] = test system: KM-20L2
[26] = test system: SF-539
[27] = test system: NCI-H226
[28] = test system: SF-268
[29] = test system: SK-MEL-28
[30] = test system: IGROV-1
[31] = test system: DMS-273
[32] = test system: A549
[33] = test system: HCT-15
[34] = test system: HCC 2998
[35] = test system: SNB-75
[36] = test system: CCRF-CEM
[37] = test system: DLD-1
[38] = test system: SNB-19
[39] = test system: UACC-257
[40] = test system: SK-OV-3
[41] = test system: SR
[42] = test system: EKVX
[43] = test system: SF-295
[44] = test system: SN12C
[45] = test system: TK-10
[46] = test system: ACHN
[47] = test system: U-251
[48] = test system: HT-29
[49] = test system: A498
[50] = test system: MDA-N
[51] = test system: DU-145
[52] = test system: OVCAR-4
[53] = test system: SK-MEL-2
[54] = test system: SK-MEL-5
[55] = test system: OVCAR-5
[56] = test system: MDA-MB-435
[57] = test system: BT-549
[58] = test system: MDA-MB-231
[59] = test system: T47D
[60] = test system: HOP-92
[61] = test system: CAKI-1
[62] = test system: PC-3
[63] = test system: MCF7
[64] = test system: NCI/ADR-RES
[65] = test system: Hs-578T

COc1ccccc1-c1cc(=O)c2ccccc2[nH]1
GI50 [1]: 33.9 µM (inactive) | GI50 [2]: > 100 µM (inactive) | GI50 [3]: > 100 µM (inactive) | GI50 [4]: 63.7 µM (inactive) | GI50 [5]: 40.4 µM (inactive) | GI50 [6]: 36.1 µM (inactive) | GI50 [7]: > 100 µM (inactive) | GI50 [8]: 70 µM (inactive) | GI50 [9]: 41.7 µM (inactive) | GI50 [10]: > 100 µM (inactive) | GI50 [11]: > 100 µM (inactive) | GI50 [12]: > 100 µM (inactive) | GI50 [13]: 60.7 µM (inactive) | GI50 [14]: 52 µM (inactive) | GI50 [15]: 43.8 µM (inactive) | GI50 [16]: > 100 µM (inactive) | GI50 [17]: > 100 µM (inactive) | GI50 [18]: > 100 µM (inactive) | GI50 [19]: 49 µM (inactive) | GI50 [20]: 99.8 µM (inactive) | GI50 [21]: > 100 µM (inactive) | GI50 [22]: > 100 µM (inactive) | GI50 [23]: > 100 µM (inactive) | GI50 [24]: > 100 µM (inactive) | GI50 [25]: > 100 µM (inactive) | GI50 [26]: > 100 µM (inactive) | GI50 [27]: 70.1 µM (inactive) | GI50 [28]: > 100 µM (inactive) | GI50 [29]: > 100 µM (inactive) | GI50 [30]: 99.8 µM (inactive) | GI50 [31]: 57.9 µM (inactive) | GI50 [32]: 54.3 µM (inactive) | GI50 [33]: 55.1 µM | GI50 [34]: 72.6 µM (inactive) | GI50 [35]: 55.7 µM (inactive) | GI50 [36]: 66.7 µM (inactive) | GI50 [37]: > 100 µM (inactive) | GI50 [38]: > 100 µM (inactive) | GI50 [39]: > 100 µM (inactive) | GI50 [40]: 73.6 µM (inactive) | GI50 [41]: 55.1 µM (inactive) | GI50 [42]: > 100 µM (inactive) | GI50 [43]: 40 µM (inactive) | GI50 [44]: > 100 µM (inactive) | GI50 [45]: > 100 µM (inactive) | GI50 [46]: > 100 µM (inactive) | GI50 [47]: > 100 µM (inactive)

CN(N)/N=N/c1[nH]cnc1C(N)=O
GI50 [1]: 30.5 µM (inactive) | GI50 [48]: 99.8 µM (inactive) | GI50 [49]: 39.1 µM (inactive) | GI50 [2]: 9.12 µM (inactive) | GI50 [3]: 50.4 µM (inactive) | GI50 [50]: 13.4 µM (inactive) | GI50 [4]: 23.7 µM (inactive) | GI50 [5]: 9.75 µM (inactive) | GI50 [6]: 1.92 µM (inactive) | GI50 [7]: 17.5 µM (inactive) | GI50 [8]: 3.36 µM (inactive) | GI50 [51]: 5.57 µM (inactive) | GI50 [52]: 3.53 µM (inactive) | GI50 [9]: 6.14 µM (inactive) | GI50 [53]: 4.79 µM (inactive) | GI50 [54]: 37.7 µM (inactive) | GI50 [55]: > 89.7 µM (inactive) | GI50 [56]: 25.2 µM (inactive) | GI50 [11]: 1.65 µM (inactive) | GI50 [57]: 42.2 µM (inactive) | GI50 [12]: 3.14 µM (inactive) | GI50 [13]: 4 µM (inactive) | GI50 [14]: 1.23 µM (inactive) | GI50 [15]: 0.531 µM (active) | GI50 [16]: 17.5 µM (inactive) | GI50 [17]: 48.9 µM (inactive) | GI50 [18]: 12.1 µM (inactive) | GI50 [19]: 4.55 µM (inactive) | GI50 [20]: 3.01 µM (inactive) | GI50 [22]: 13.2 µM (inactive) | GI50 [24]: > 100 µM (inactive) | GI50 [58]: 3.22 µM (inactive) | GI50 [59]: > 34.5 µM (inactive) | GI50 [26]: 13.7 µM (inactive) | GI50 [27]: 23.4 µM (inactive) | GI50 [60]: 17.5 µM (inactive) | GI50 [28]: 5.52 µM (inactive) | GI50 [29]: > 100 µM (inactive) | GI50 [61]: 4.24 µM (inactive) | GI50 [30]: 9.93 µM (inactive) | GI50 [62]: 15.3 µM (inactive) | GI50 [63]: 48.4 µM (inactive) | GI50 [32]: > 100 µM (inactive) | GI50 [33]: 22.8 µM | GI50 [64]: 5.35 µM (inactive) | GI50 [34]: 3.3 µM (inactive) | GI50 [35]: 4.66 µM (inactive) | GI50 [65]: 37.5 µM (inactive) | GI50 [36]: 2.72 µM (inactive) | GI50 [38]: > 100 µM (inactive) | GI50 [39]: 54.2 µM (inactive) | GI50 [40]: 3.33 µM (inactive) | GI50 [41]: 0.352 µM (active) | GI50 [42]: 36.1 µM (inactive) | GI50 [43]: 6.14 µM (inactive) | GI50 [44]: 4.82 µM (inactive) | GI50 [45]: 7.67 µM (inactive) | GI50 [46]: 22.3 µM (inactive) | GI50 [47]: > 66.1 µM (inactive)
